# Test results: US9902733B2, “Furopyridines as inhibitors of protein kinases” (MASARYKOVA UNIVERZITA, priority 2014, dated 2018)
# pIC50: −log10 of the molar value. Like-named read-outs stand apart in the source and are kept apart here.
# Columns and labels:
# Type in all cases: biochemical
# CLK2 (h) = target: T1, CLK2 (h) (Homo sapiens, UniProt P49760); test: CLK2 KinaseProfiler radiometric protein kinase assay
# T1 construct: purchased Merck Millipore (KinaseProfiler service)
# Method: (§1) In vitro essays were performed by the company Merck Millipore in their KinaseProfiler radiometric protein kinase assay as paid commercial service. The compounds IC50 values for inhibition of individual protein kinases were determined. Dose-response curves were plotted from inhibition data generated, each in duplicate, from 10 point serial dilutions of inhibitory compounds. Concentration of compound was plotted against % kinase activity. To generate IC50 values, the dose-response curves were fitted to a standard sigmoidal curve and IC50 values were derived by standard nonlinear regression analysis.
# (§2) All tested compounds were prepared in 100% DMSO to final assay concentrations either 0.5 mM (for the concentration row A, see below) or 0.05 mM (for the concentration row B). This working stock of the compound was added to the assay well as the first component in the reaction, followed by the remaining components as detailed below. The stock solution was added to the individual assay wells in such amounts that the concentrations of the compound were either in the row A (0.001 μM, 0.003 μM, 0.01 μM, 0.03 μM, 0.1 μM, 0.3 μM, 1.0 μM, 3.0 μM, and 10.0 μM) or in the row B (0.0001 μM, 0.0003 μM, 0.001 μM, 0.003 μM, 0.01 μM, 0.03 μM, 0.1 μM, 0.3 μM, and 1.0 μM). There was no pre-incubation step between the compound and the kinase prior to initiation of the reaction.
# (§3) The positive control wells contained all components of the reaction, except the compound of interest; however, DMSO (at a final concentration of 2%) was included in these wells to control for solvent effects. The blank wells contained all components of the reaction, with staurosporine as a reference inhibitor replacing the compound of interest. This abolished kinase activity and established the base-line (0% kinase activity remaining).
# CLK2 (h) was diluted in the buffer (20 mM MOPS (3-(N-morpholino)propanesulfonic acid), 1 mM EDTA (ethylendiaminotetraacetic acid), 0.01% Brij-35 (detergent), 5% Glycerol, 0.1% β-mercaptoethanol, 1 mg/mL BSAs) to the concentration of 1.01 mg/mL prior to addition to the reaction mix.
# (§4) The above stock solution of CLK2(h) was added to a mixture containing 8 mM MOPS pH 7.0, 0.2 mM EDTA, and 20 μM […](p) EDEEE in such amount that the resulting concentration of CLK2(h) was 2.1 nM. This mixture was added to the stock solution of the tested compound. The reaction was initiated by the addition of the MgATP mix in such amount that the resulting concentration of Mg acetate in the reaction mixture was 10 mM and [γ-^33P-ATP] (specific activity approx. 500 cpm/pmol) was 15 μM. After incubation for 40 minutes at room temperature, the reaction was stopped by the addition of 3% phosphoric acid solution. 10 μL of the reaction was then spotted onto a P30 filtermat and washed three times for 5 minutes in 75 mM phosphoric acid and once in methanol prior to drying and scintillation counting.
# HIPK1(h) = target: T2, HIPK1(h) (Homo sapiens, UniProt Q86Z02); test: HIPK1 KinaseProfiler radiometric protein kinase assay; details: 45 μM ATP, 40 minutes at room temperature
# T2 construct: purchased Merck Millipore (KinaseProfiler service)
# T2 sequence (Q86Z02 whole entry): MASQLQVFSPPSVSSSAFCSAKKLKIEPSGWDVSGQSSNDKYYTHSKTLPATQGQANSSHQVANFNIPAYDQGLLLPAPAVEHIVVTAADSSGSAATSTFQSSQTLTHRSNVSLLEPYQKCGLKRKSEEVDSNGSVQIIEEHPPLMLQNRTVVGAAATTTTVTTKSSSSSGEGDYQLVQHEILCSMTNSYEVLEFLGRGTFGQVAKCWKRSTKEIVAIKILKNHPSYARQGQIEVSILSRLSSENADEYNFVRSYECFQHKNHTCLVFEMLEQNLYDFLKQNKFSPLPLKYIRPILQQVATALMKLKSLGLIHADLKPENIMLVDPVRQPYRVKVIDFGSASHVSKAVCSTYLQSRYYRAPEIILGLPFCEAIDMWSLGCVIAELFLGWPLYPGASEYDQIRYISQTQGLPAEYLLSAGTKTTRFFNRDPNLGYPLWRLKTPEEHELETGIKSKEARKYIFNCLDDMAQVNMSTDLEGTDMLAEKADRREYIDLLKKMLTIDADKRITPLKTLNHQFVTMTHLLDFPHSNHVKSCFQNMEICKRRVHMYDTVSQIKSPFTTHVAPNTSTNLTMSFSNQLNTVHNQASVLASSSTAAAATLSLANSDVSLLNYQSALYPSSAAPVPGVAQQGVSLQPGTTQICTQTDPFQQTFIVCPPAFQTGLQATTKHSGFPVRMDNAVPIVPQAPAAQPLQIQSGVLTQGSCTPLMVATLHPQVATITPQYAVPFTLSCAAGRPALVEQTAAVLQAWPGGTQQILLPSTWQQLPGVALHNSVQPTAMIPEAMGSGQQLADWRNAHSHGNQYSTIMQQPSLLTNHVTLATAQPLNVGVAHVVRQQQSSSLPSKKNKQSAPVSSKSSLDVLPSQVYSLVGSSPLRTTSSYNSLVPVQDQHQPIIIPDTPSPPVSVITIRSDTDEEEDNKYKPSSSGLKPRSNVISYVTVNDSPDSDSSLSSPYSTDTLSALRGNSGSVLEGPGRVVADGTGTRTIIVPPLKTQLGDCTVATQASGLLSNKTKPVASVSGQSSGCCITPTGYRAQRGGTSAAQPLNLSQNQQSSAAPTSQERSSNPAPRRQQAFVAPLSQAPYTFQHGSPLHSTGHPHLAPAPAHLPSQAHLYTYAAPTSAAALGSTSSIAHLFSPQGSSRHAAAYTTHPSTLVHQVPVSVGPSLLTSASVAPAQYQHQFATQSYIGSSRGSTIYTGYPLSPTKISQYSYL
# Method: as §1, §2, §3
# HIPK1(h) was diluted in the buffer (20 mM MOPS, 1 mM EDTA, 0.01% Brij-35, 5% Glycerol, 0.1% β-mercaptoethanol, 1 mg/mL BSAs) to the concentration of 1.01 mg/mL prior to addition to the reaction mix.
# (§5) The above stock solution of HIPK1(h) was added to a mixture containing 8 mM MOPS pH 7.0, 0.2 mM EDTA, and 0.33 mg/mL myelin basic protein in such amount that the resulting concentration of HIPK1(h) was 4.7 nM. This mixture was added to the stock solution of the tested compound. The reaction was initiated by the addition of the MgATP mix in such amount that the resulting concentration of Mg acetate in the reaction mixture was 10 mM and [γ-^33P-ATP] (specific activity approx. 500 cpm/pmol) was 45 μM. After incubation for 40 minutes at room temperature, the reaction was stopped by the addition of 3% phosphoric acid solution. 10 μL of the reaction was then spotted onto a P30 filtermat and washed three times for 5 minutes in 75 mM phosphoric acid and once in methanol prior to drying and scintillation counting.
# HIPK2(h) = target: T3, HIPK2(h) (Homo sapiens, UniProt Q9H2X6); test: HIPK2 KinaseProfiler radiometric protein kinase assay; details: 10 μM ATP, 40 minutes at room temperature
# T3 construct: purchased Merck Millipore (KinaseProfiler service)
# T3 sequence (Q9H2X6 whole entry): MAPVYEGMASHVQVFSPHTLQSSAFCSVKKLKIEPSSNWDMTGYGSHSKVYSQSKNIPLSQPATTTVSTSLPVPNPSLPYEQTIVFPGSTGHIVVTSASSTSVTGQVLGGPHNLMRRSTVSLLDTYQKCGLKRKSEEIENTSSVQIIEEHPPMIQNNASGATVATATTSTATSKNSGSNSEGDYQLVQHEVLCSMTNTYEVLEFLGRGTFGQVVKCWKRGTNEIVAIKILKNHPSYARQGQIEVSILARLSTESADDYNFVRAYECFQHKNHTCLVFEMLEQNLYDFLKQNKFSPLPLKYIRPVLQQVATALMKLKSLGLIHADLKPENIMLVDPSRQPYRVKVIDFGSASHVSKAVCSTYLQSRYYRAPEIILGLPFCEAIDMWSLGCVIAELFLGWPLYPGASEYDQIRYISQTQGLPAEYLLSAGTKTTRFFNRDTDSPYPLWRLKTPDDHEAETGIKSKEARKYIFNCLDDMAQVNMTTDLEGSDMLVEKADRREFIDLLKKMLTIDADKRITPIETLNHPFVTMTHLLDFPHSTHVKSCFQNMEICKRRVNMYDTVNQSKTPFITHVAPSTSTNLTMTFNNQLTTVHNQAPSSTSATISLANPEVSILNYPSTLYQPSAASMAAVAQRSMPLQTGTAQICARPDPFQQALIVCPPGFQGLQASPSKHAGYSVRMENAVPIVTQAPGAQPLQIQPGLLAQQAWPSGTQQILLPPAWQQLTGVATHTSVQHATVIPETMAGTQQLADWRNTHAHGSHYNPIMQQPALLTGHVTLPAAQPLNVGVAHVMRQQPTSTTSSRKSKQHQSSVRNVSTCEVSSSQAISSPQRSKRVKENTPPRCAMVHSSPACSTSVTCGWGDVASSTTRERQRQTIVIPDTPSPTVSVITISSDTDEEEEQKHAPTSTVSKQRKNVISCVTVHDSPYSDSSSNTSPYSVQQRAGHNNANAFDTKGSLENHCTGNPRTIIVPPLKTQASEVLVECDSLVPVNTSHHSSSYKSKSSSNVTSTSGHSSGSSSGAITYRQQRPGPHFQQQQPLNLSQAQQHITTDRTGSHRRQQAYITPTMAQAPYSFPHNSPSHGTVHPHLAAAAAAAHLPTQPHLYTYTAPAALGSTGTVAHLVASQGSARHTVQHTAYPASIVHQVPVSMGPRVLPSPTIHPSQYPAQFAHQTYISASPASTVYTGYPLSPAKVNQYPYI
# Method: as §1, §2, §3
# HIPK2(h) was diluted in the buffer (20 mM MOPS, 1 mM EDTA, 0.01% Brij-35, 5% Glycerol, 0.1% β-mercaptoethanol, 1 mg/mL BSAs) to the concentration of 1.01 mg/mL prior to addition to the reaction mix.
# as §5, with “HIPK2(h)” for “HIPK1(h)”, “1.4” for “4.7”, “10” for “45”
# CLK4 (h) = target: T4, CLK4 (h) (Homo sapiens, UniProt Q9HAZ1); test: CLK4 KinaseProfiler radiometric protein kinase assay; details: 15 μM ATP, 40 minutes at room temperature
# T4 construct: purchased Merck Millipore (KinaseProfiler service)
# T4 sequence (Q9HAZ1 whole entry): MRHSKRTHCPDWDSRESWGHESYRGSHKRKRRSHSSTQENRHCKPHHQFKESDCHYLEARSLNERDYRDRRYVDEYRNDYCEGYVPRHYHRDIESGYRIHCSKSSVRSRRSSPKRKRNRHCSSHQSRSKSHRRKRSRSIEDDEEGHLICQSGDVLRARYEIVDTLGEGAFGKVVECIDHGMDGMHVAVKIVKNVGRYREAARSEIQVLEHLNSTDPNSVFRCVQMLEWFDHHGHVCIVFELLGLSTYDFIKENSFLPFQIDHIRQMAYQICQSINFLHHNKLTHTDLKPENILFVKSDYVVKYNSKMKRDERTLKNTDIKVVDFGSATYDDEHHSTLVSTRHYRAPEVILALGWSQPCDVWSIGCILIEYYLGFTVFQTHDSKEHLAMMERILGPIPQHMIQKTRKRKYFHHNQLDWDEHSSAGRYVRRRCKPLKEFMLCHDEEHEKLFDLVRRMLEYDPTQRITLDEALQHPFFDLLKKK
# Method: as §1, §2, §3
# CLK4 (h) was diluted in the buffer (20 mM MOPS, 1 mM EDTA, 0.01% Brij-35, 5% Glycerol, 0.1% β-mercaptoethanol, 1 mg/mL BSAs) to the concentration of 1.01 mg/mL prior to addition to the reaction mix.
# as §4, with “CLK4(h)” for “CLK2(h)”, “200” for “20”, “140.8” for “2.1”
# T1 sequence (P49760 whole entry): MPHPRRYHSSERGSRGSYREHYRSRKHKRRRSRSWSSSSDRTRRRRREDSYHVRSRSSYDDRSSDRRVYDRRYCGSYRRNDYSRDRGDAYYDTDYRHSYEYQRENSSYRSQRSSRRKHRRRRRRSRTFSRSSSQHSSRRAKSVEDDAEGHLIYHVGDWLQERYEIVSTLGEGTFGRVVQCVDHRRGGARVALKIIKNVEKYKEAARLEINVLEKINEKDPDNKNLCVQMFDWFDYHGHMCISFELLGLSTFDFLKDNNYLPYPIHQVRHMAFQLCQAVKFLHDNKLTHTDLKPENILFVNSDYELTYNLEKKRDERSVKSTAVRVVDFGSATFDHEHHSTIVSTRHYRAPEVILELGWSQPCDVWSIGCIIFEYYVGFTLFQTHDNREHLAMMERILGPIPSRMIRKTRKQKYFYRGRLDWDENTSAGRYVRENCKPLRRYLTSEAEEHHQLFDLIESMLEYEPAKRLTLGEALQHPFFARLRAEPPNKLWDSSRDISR
SMILES,"pIC50 (CLK2 (h); radiometric, 15 μM ATP, 40 minutes at room temperature, read-out: CLK2 IC50)",pIC50 (HIPK1(h)),pIC50 (HIPK2(h)),pIC50 (CLK4 (h)),pIC50 (CLK2 (h))
Cn1cc(-c2ccc3occ(-c4ccccc4)c3n2)cn1 [Preparative Example 6A],> 6.00,> 6.00,> 6.00,> 7.00,
c1ccc(-c2coc3ccc(-c4cn[nH]c4)nc23)cc1 [Preparative Example 9],,> 7.00,> 7.00,> 7.00,> 7.00
